Like-named read-outs stand apart in the source and are kept apart here.

The source of these data is US4393228A, “Epoxysuccinic acid derivatives” (Taisho Pharmaceutical Co., Ltd., priority 1977, dated 1983).

One test has as its target T1, papain (Carica papaya, UniProt P00784).
T1 construct: purchased Sigma Chem. Co
T1 sequence (P00784 134-345): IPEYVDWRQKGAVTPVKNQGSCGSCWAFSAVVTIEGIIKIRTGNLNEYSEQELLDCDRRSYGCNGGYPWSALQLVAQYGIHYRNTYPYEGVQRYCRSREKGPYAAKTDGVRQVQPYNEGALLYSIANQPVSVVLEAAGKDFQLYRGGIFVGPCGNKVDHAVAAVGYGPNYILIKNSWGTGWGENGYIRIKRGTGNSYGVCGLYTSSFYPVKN
Put plainly: Papain inhibitory activity (milk casein digestion). The class given is biochemical. The following applies: papain 80 μg/ml 0.5 ml, cysteine, pH 6.8, 1% milk casein, 40° C., 10 minutes. The essentials: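 Papain (80 μg/ml stock) preincubated 15 min at 40 °C with inhibitor, cysteine/EDTA activator and phosphate buffer pH 6.8. Then 1% milk casein digested 10 min at 40 °C, stopped with trichloroacetic acid and filtered; filtrate absorbance at 280 nm gives percent inhibition versus no-inhibitor control.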

Test [1] concerns adjuvant induced polyarthritis. Put plainly: Inhibition of adjuvant induced polyarthritis in rats (hind paw volume). It is filed as in vivo, Sprague Dawley rat. Particulars: Rattus norvegicus, 100 mg/kg of body weight, daily oral. As to the method:
Effect of the compounds of this invention on the development of adjuvant-induced polyarthritis in rats was assayed as follows: Adjuvant arthritis was produced by a single intracutaneous injection of 0.1 ml of the adjuvant mixture containing heat-killed mycobacteria of the human Aoyama B strain suspended in liquid paraffin in 0.6% in the middle part of the distal tail of Sprague Dawley rat (female, 8 weeks old). […] The activity was measured as the mean inhibition percent for the increase of the hind paw volume of the 8 rats/group on the days 17 and 23 on which the legs become inflamed and reach maximum volumes. The compound Nos. in Table 2 are as defined in Examples as described hereinafter.

[2] abbreviates: 408 h, day 17, read-out: Inhibition % 17 days (increase of hind paw volume).
[3] abbreviates: 552 h, day 23, read-out: Inhibition % 23 days (increase of hind paw volume).

For `O=C(OC1CCCCC1)[C@@H]1O[C@H]1C(=O)OC1CCCCC1` (relative stereo) [EP-1, dicyclohexyl epoxysuccinate], on papain, the “ID50 (amount of inhibitor for 50% inhibition)” value is 1.98 γ. The inhibition in vivo at 100 mg/kg in test [1] (setting [2]) was 82.1%; in test [1] (setting [3]), 77%. Turning to `O=C(O)[C@@H]1O[C@H]1C(=O)OC1CCCCC1` (relative stereo) [EP-2, cyclohexyl potassium epoxysuccinate], at papain, the “ID50 (amount of inhibitor for 50% inhibition)” value is 0.07 γ. The inhibition in vivo at 100 mg/kg in test [1] (setting [2]) came to 43.2%; in test [1] (setting [3]), 50%.

As to `C[C@H]1CC[C@@H](OC(=O)[C@@H]2O[C@H]2C(=O)O[C@H]2CC[C@@H](C)CC2)CC1` (relative stereo) [EP-17, di-4'-cis-methylcyclohexyl epoxysuccinate], at papain, the “ID50 (amount of inhibitor for 50% inhibition)” value is 1.79 γ. For the same molecule, the inhibition in vivo at 100 mg/kg in test [1] (setting [2]) was 100%; in test [1] (setting [3]), 78.7%. On to `O=C(OC1CCCC1)[C@@H]1O[C@H]1C(=O)OC1CCCC1` (relative stereo) [EP-25, dicyclopentyl epoxysuccinate], for which the “ID50 (amount of inhibitor for 50% inhibition)” value on papain is recorded as 3.03 γ. The inhibition in vivo at 100 mg/kg was 52.6% in test [1] (setting [2]) and 77.8% in test [1] (setting [3]). The corresponding values for `O=C(O)[C@@H]1O[C@H]1C(=O)OC1CCCC1` (relative stereo) [EP-26, cyclopentyl potassium epoxysuccinate] are 0.08 γ, 52% and 55.5%. For `O=C(OCC1CCCO1)[C@@H]1O[C@H]1C(=O)OCC1CCCO1` (relative stereo) [EP-75, di-tetrahydro-2-furanmethyl epoxysuccinate], in that order: 1.65 γ, 89.6% and 41%.

As for `O=C(OCc1cccs1)[C@@H]1O[C@H]1C(=O)OCc1cccs1` (relative stereo) [EP-79, di-2-thenyl epoxysuccinate], the “ID50 (amount of inhibitor for 50% inhibition)” value at papain is given as 0.75 γ. The inhibition in vivo at 100 mg/kg in test [1] (setting [2]) was found to be 64.3%; in test [1] (setting [3]), 90.2%. As to `COC(=O)[C@H](CCCNC(=O)OCc1ccccc1)NC(=O)C1OC1C(=O)[O-].[K+]` (stereo partly drawn) [EP-198, N^α -(3-carboxyoxirane-2-carbonyl)-N^δ -carbobenzoxy-L-ornithine methyl ester potassium salt], the “ID50 (amount of inhibitor for 50% inhibition)” value on papain is listed as 0.15 γ.

As for `CCCCOC(=O)[C@H](CCCNC(=O)OCc1ccccc1)NC(=O)C1OC1C(=O)[O-].[K+]` (stereo partly drawn) [EP-199, N^α -(3-carboxyoxirane-2-carbonyl)-N^δ -carbobenzoxy-L-ornithine n-butyl ester potassium salt], the “ID50 (amount of inhibitor for 50% inhibition)” value at papain is reported as 0.14 γ. Same read-out and setting: as for `COC(=O)[C@H](CCCNC(=N)N)NC(=O)C1OC1C(=O)O` (stereo partly drawn) [EP-200, N-(3-carboxyoxirane-2-carbonyl)-L-arginine methyl ester], the figure is 0.88 γ; as for `CCOC(=O)C1OC1C(=O)N[C@@H](CCCCN)C(=O)O` (stereo partly drawn) [EP-201, N-(3-ethoxycarbonyloxirane-2-carbonyl)-L-lysine], 25.51 γ; as for `N=C(N)NCCC[C@H](NC(=O)C1OC1C(=O)O)C(=O)O` (stereo partly drawn) [EP-202, N-(3-carboxyoxirane-2-carbonyl)-L-arginine], 21.93 γ. The same measure, in the same setting: as for `CCOC(=O)[C@H](CC(C)C)NC(=O)C1OC1C(=O)OCCCC1CCCC1` (stereo partly drawn) [EP-203, N-[3-(3'-cyclopentylpropyloxy)carbonyloxirane-2-carbonyl]-L-leucine ethyl ester], the figure is 0.12 γ. The same measure, in the same setting: as for `O=C(NCCCC[C@H](NC(=O)C1OC1C(=O)OC1CC1)C(=O)OCc1ccccc1)OCc1ccccc1` (stereo partly drawn) [EP-204, N^α -(3-cyclopropyloxycarbonyloxirane-2-carbonyl)-N^ε-carbobenzoxy-L-lysine benzyl ester], the figure is 15.20 γ; as for `CC(C)[C@H](NC(=O)C1OC1C(=O)OC1CCCC1)C(=O)OCc1ccccc1` (stereo partly drawn) [EP-205, N-(3-cyclopentyloxycarbonyloxirane-2-carbonyl)-L-valine benzyl ester], 0.82 γ; as for `CC(OC(=O)C1OC1C(=O)N[C@@H](CCCCN)C(=O)OCc1ccccc1)C1CCCC1` (stereo partly drawn) [EP-206, N-[3-(1'-cyclopentylethoxy)-carbonyloxirane-2-carbonyl]-L-lysine benzyl ester], 0.12 γ. For `O=C(CC[C@H](NC(=O)C1OC1C(=O)OC1CCCCCCC1)C(=O)OCc1ccccc1)OCc1ccccc1` (stereo partly drawn) [EP-209, N-(3-cyclooctyloxycarbonyloxirane-2-carbonyl)-L-glutamic acid dibenzyl ester], the “ID50 (amount of inhibitor for 50% inhibition)” value at papain is recorded as 2.45 γ. On the same count and under the same terms, for `CCOC(=O)[C@H](Cc1ccccc1)NC(=O)C1OC1C(=O)OC1C2CC3CC(C2)CC1C3` (stereo partly drawn) [EP-210, N-[3-(2'-adanatyloxy)-carbonyloxirane-2-carbonyl]-L-phenyl alanine ethyl ester] the value was 1.12 γ; for `O=C(N[C@@H](Cc1ccc(O)cc1)C(=O)OCc1ccccc1)C1OC1C(=O)OCC1CC=CCC1` (stereo partly drawn) [EP-211, N-[3-(3'-cyclohexen-1-yl)-methoxycarbonyloxirane-2-carbonyl]-L-tyrosine benzyl ester], 0.61 γ. In the case of `CCOC(=O)[C@H](Cc1ccccc1)NC(=O)C1OC1C(=O)OC1CCCCC1C` (stereo partly drawn) [EP-212, N-[3-(2'-cis-methylcyclohexyloxy)carbonyloxirane-2-carbonyl]-L-phenylalanine ethyl ester], the “ID50 (amount of inhibitor for 50% inhibition)” value on papain is listed as 1.21 γ. With `O=C(CNC(=O)C1OC1C(=O)OC1CCCC1Cl)OCc1ccccc1` (stereo not drawn) [EP-213, N-[3-(2'-cis-chlorocyclopentyloxy)-carbonyloxirane-2-carbonyl]-glycine benzyl ester], the “ID50 (amount of inhibitor for 50% inhibition)” value on papain was 6.75 γ. The same measure, in the same setting: for `CC(C)C[C@H](NC(=O)C1OC1C(=O)OC1CCCC1Br)C(=O)OCc1ccccc1` (stereo partly drawn) [EP-214, N-[3-(2'-trans-bromocyclopentyloxy)-carbonyloxirane-2-carbonyl]-L-leucine benzyl ester] the value was 0.13 γ; for `COC(=O)[C@H](C)NC(=O)C1OC1C(=O)O[C@H]1CC[C@H](C)CC1` (stereo partly drawn) [EP-215, N-[3-(4'-trans-methylcyclohexyloxy)-carbonyloxirane-2-carbonyl]-L-alanine methyl ester], 3.55 γ.

With `CCCCOC(=O)[C@H](CC(C)C)NC(=O)C1OC1C(=O)OCc1ccco1` (stereo partly drawn) [EP-217, N-[3-furfuryloxycarbonyloxirane-2-carbonyl]-L-leucine n-butyl ester], the “ID50 (amount of inhibitor for 50% inhibition)” value on papain is on record as 0.25 γ. Regarding `CC(C)(C)OC(=O)[C@H](Cc1ccccc1)NC(=O)C1OC1C(=O)OCC1CCCO1` (stereo partly drawn) [EP-218, N-[3-tetrahydrofurfuryloxycarbonyloxirane-2-carbonyl]-L-phenylalanine t-butyl ester], at papain, the “ID50 (amount of inhibitor for 50% inhibition)” value is on record as 1.65 γ. Still for that read-out and setting: as for `CCOC(=O)[C@@H](NC(=O)C1OC1C(=O)OCc1cccc2ccccc12)C(C)C` (stereo partly shown) [EP-219], the figure is 2.12 γ.
